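Assay format: 96-well plates, 48-hour exposure. TGI: total growth inhibition.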
Key:
Assay in all cases: growth of human tumour cells (NCI), 48 h
[1] = test system: 786-0 renal
[2] = test system: A498 renal
[3] = test system: A549 NSCLC
[4] = test system: ACHN renal
[5] = test system: BT-549 breast
[6] = test system: CAKI-1 renal
[7] = test system: CCRF-CEM leukemia
[8] = test system: COLO 205 colon
[9] = test system: DU-145 prostate
[10] = test system: EKVX NSCLC
[11] = test system: HCC-2998 colon
[12] = test system: HCT-116 colon
[13] = test system: HCT-15 colon
[14] = test system: HL-60(TB) leukemia
[15] = test system: HOP-62 NSCLC
[16] = test system: HOP-92 NSCLC
[17] = test system: HS 578T breast
[18] = test system: HT29 colon
[19] = test system: IGROV1 ovarian
[20] = test system: K-562 leukemia
[21] = test system: KM12 colon
[22] = test system: LOX IMVI melanoma
[23] = test system: M14 melanoma
[24] = test system: MCF7 breast
[25] = test system: MDA-MB-231 breast
[26] = test system: MDA-MB-435
[27] = test system: MDA-N
[28] = test system: MOLT-4 leukemia
[29] = test system: NCI-H226 lung
[30] = test system: NCI-H23 lung
[31] = test system: NCI-H460 lung
[32] = test system: NCI-H522 lung
[33] = test system: NCI/ADR-RES ovarian
[34] = test system: OVCAR-3 ovarian
[35] = test system: OVCAR-4 ovarian
[36] = test system: OVCAR-5 ovarian
[37] = test system: OVCAR-8 ovarian
[38] = test system: PC-3 prostate
[39] = test system: RPMI-8226 leukemia
[40] = test system: RXF 393 renal
[41] = test system: SF-268 CNS
[42] = test system: SF-295 CNS
[43] = test system: SF-539 CNS
[44] = test system: SK-MEL-2 melanoma
[45] = test system: SK-MEL-28 melanoma
[46] = test system: SK-MEL-5 melanoma
[47] = test system: SK-OV-3 ovarian
[48] = test system: SN12C renal
[49] = test system: SNB-19 CNS
[50] = test system: SNB-75 CNS
[51] = test system: SR leukemia
[52] = test system: SW-620 colon
[53] = test system: TK-10 renal
[54] = test system: U251 CNS
[55] = test system: UACC-257 melanoma
[56] = test system: UACC-62 melanoma
[57] = test system: UO-31 renal
[58] = test system: MALME-3M melanoma
[59] = test system: T-47D breast

For `O=C(/C=C\c1ccc(-c2ccccc2)cc1)c1cccs1`, the TGI [1] was over 100 µM, the TGI [2] was over 27.1 µM and the TGI [3] was over 100 µM. It also gave a TGI [4] of over 100 µM, a TGI [5] of over 100 µM and a TGI [6] of over 100 µM. For the same molecule, the TGI [7] was 12.5 µM, the TGI [8] was over 100 µM and the TGI [9] was over 100 µM. The TGI [10] was over 100 µM, the TGI [11] was over 100 µM and the TGI [12] was over 100 µM. For the same molecule, the TGI [13] was over 100 µM, the TGI [14] was over 31 µM and the TGI [15] was over 100 µM. It also gave a TGI [16] of over 100 µM, a TGI [17] of over 81 µM and a TGI [18] of over 50.3 µM. It also gave a TGI [19] of over 94.3 µM, a TGI [20] of over 100 µM and a TGI [21] of over 100 µM. It also gave a TGI [22] of over 100 µM, a TGI [23] of over 100 µM and a TGI [24] of over 100 µM. The TGI [25] was over 100 µM, the TGI [26] was over 100 µM and the TGI [27] was over 100 µM. The TGI [28] was over 28.1 µM, the TGI [29] was over 100 µM and the TGI [30] was over 100 µM. For the same molecule, the TGI [31] was over 100 µM, the TGI [32] was over 30.4 µM and the TGI [33] was over 100 µM. It also gave a TGI [34] of over 100 µM, a TGI [35] of over 100 µM and a TGI [36] of over 100 µM. For the same molecule, the TGI [37] was over 100 µM, the TGI [38] was over 100 µM and the TGI [39] was over 100 µM. For the same molecule, the TGI [40] was 46.4 µM, the TGI [41] was over 75 µM and the TGI [42] was over 100 µM. It also gave a TGI [43] of over 100 µM, a TGI [44] of over 100 µM and a TGI [45] of over 100 µM. For the same molecule, the TGI [46] was over 100 µM, the TGI [47] was over 100 µM and the TGI [48] was over 100 µM. The TGI [49] was over 100 µM, the TGI [50] was over 60.4 µM and the TGI [51] was over 100 µM. For the same molecule, the TGI [52] was over 100 µM, the TGI [53] was over 100 µM and the TGI [54] was over 100 µM. For the same molecule, the TGI [55] was over 100 µM, the TGI [56] was over 100 µM and the TGI [57] was over 100 µM.

`CN1CCN(C(=S)N(C(=O)c2cccs2)c2ccccc2)CC1` gave a TGI [1] of over 100 µM, a TGI [3] of over 100 µM and a TGI [4] of over 100 µM. The TGI [5] was over 100 µM, the TGI [7] was over 100 µM and the TGI [8] was over 100 µM. The TGI [9] was over 100 µM, the TGI [11] was over 100 µM and the TGI [13] was over 100 µM. The TGI [14] was over 100 µM, the TGI [16] was over 100 µM and the TGI [17] was over 100 µM. It also gave a TGI [18] of over 100 µM, a TGI [19] of over 100 µM and a TGI [20] of over 100 µM. It also gave a TGI [21] of over 100 µM, a TGI [22] of over 100 µM and a TGI [23] of over 100 µM. For the same molecule, the TGI [58] was over 100 µM, the TGI [24] was over 100 µM and the TGI [25] was over 100 µM. The TGI [26] was over 100 µM, the TGI [27] was over 100 µM and the TGI [28] was over 100 µM. For the same molecule, the TGI [29] was over 100 µM, the TGI [30] was over 100 µM and the TGI [31] was over 100 µM. The TGI [32] was over 100 µM, the TGI [34] was over 100 µM and the TGI [35] was over 100 µM. For the same molecule, the TGI [36] was over 100 µM, the TGI [37] was over 100 µM and the TGI [39] was over 100 µM. It also gave a TGI [40] of over 100 µM, a TGI [41] of over 100 µM and a TGI [44] of over 100 µM. It also gave a TGI [45] of over 100 µM, a TGI [46] of over 100 µM and a TGI [48] of over 100 µM. The TGI [49] was over 100 µM, the TGI [50] was over 100 µM and the TGI [51] was over 100 µM. The TGI [52] was over 100 µM, the TGI [59] was over 100 µM and the TGI [53] was over 100 µM. The TGI [54] was over 100 µM, the TGI [55] was over 100 µM and the TGI [56] was over 100 µM. The TGI [57] was over 100 µM.

In the case of `Cc1ccc(-c2c(C#N)c(N)[nH]c(=S)c2C#N)cc1`, the TGI [1] is reported as 77.5 µM, the TGI [2] is reported as over 100 µM and the TGI [3] is reported as over 100 µM. The TGI [4] was over 100 µM, the TGI [5] was over 100 µM and the TGI [6] was over 100 µM. The TGI [8] was 69 µM, the TGI [9] was over 100 µM and the TGI [10] was 66.1 µM. It also gave a TGI [11] of over 100 µM, a TGI [12] of over 100 µM and a TGI [13] of over 100 µM. The TGI [14] was 52.8 µM, the TGI [15] was over 100 µM and the TGI [16] was over 100 µM. For the same molecule, the TGI [17] was 51.4 µM, the TGI [18] was over 100 µM and the TGI [19] was over 100 µM. The TGI [20] was over 100 µM, the TGI [21] was over 100 µM and the TGI [22] was over 100 µM. It also gave a TGI [23] of over 100 µM, a TGI [58] of 62.2 µM and a TGI [24] of over 100 µM. For the same molecule, the TGI [25] was over 100 µM, the TGI [26] was 65.4 µM and the TGI [27] was 41.3 µM. The TGI [28] was 76.9 µM, the TGI [29] was over 100 µM and the TGI [30] was over 100 µM. The TGI [31] was over 100 µM, the TGI [32] was 55.6 µM and the TGI [33] was over 100 µM. For the same molecule, the TGI [34] was over 100 µM, the TGI [35] was over 100 µM and the TGI [36] was over 100 µM. It also gave a TGI [37] of over 100 µM, a TGI [38] of over 100 µM and a TGI [39] of 65.8 µM. The TGI [40] was 46.5 µM, the TGI [41] was over 100 µM and the TGI [42] was over 100 µM. It also gave a TGI [43] of over 100 µM, a TGI [44] of 72.6 µM and a TGI [45] of over 100 µM. The TGI [46] was over 100 µM, the TGI [48] was 76 µM and the TGI [49] was over 100 µM. For the same molecule, the TGI [51] was 66.9 µM, the TGI [52] was over 100 µM and the TGI [53] was over 100 µM. For the same molecule, the TGI [54] was over 100 µM, the TGI [55] was over 100 µM and the TGI [56] was over 100 µM. It also gave a TGI [57] of over 100 µM.

Source: PubChem BioAssay (NCI)
